Assay results reported in the supplement of paper PMC11208160.

Assay: recombinant barcode read abundance after kanamycin selection (control-corrected) (log10(CPM+1)); higher = more efficient recombination; sequences stand for … in AGTGCAGAGAAAATCGGCCAGTTTTCTCTGCCTGCAGTCCGCATGCCGT…ATTTATGCAGCGGACTGCCTTTCTCCCAAAGTGATAAACCGGACAGTATCATGGACCGGTTTTCCCGGTAATCCGTATTTGCAAGGTTGGTTTCACT; site = the 11-nt target
Summary of the method: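 Pooled E. coli screen pairing targets with IS621 bridge RNA target-binding loops. Each oligo (promoter, target, barcode, J23119-driven first 104 bridge RNA bases) was Gibson-cloned into a vector with the remaining 73 bp and T7-inducible recombinase, then co-electroporated with a donor plasmid. Two replicates each were plated on chloramphenicol/ampicillin LB agar (control) or chloramphenicol/ampicillin/kanamycin with 0.1 mM IPTG. Recombination efficiency is recombinant-junction barcode counts as CPM, averaged, control-corrected, reported as log10(CPM+1).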

Sequence | recombinant barcode read abundance (log10)
GTCGCCCCTTGGGTTCTAACCTGTTGCTATT [GTCGCCCCTTA_LTGcore_CT_RTGcore_AA] (site GTCGCCCCTTA) (LTG core: CT, RTG core: AA) | 0.214
GTCGCCCGGTGGGTTCTAACCTGTTGCTAAG [GTCGCCCCTTA_LTGcore_GG_RTGcore_CT] (site GTCGCCCCTTA) (LTG core: GG, RTG core: CT) | 0.0246
GTCGCCCGTTGGGTTCTAACCTGTTGCTAAC [GTCGCCCCTTA_LTGcore_GT_RTGcore_GT] (site GTCGCCCCTTA) (LTG core: GT, RTG core: GT) | 0.146
GTCGCCCTATGGGTTCTAACCTGTTGCTATA [GTCGCCCCTTA_LTGcore_TA_RTGcore_TA] (site GTCGCCCCTTA) (LTG core: TA, RTG core: TA) | 0.394
GTCGCCCTTTGGGTTCTAACCTGTTGCTAAA [GTCGCCCCTTA_LTGcore_TT_RTGcore_TT] (site GTCGCCCCTTA) (LTG core: TT, RTG core: TT) | 0.0974
GTCGCCCTTTGGGTTCTAACCTGTTGCTAAG [GTCGCCCCTTA_LTGcore_TT_RTGcore_CT] (site GTCGCCCCTTA) (LTG core: TT, RTG core: CT) | 0.137
TAAGAATAATGGGTTCTAACCTGTTGCCTAG [TAAGAATCTAG_LTGcore_AA_RTGcore_CT] (site TAAGAATCTAG) (LTG core: AA, RTG core: CT) | 0.232
TAAGAATATTGGGTTCTAACCTGTTGCCTAG [TAAGAATCTAG_LTGcore_AT_RTGcore_CT] (site TAAGAATCTAG) (LTG core: AT, RTG core: CT) | 0.124
TAAGAATCATGGGTTCTAACCTGTTGCCTTG [TAAGAATCTAG_LTGcore_CA_RTGcore_CA] (site TAAGAATCTAG) (LTG core: CA, RTG core: CA) | 1.03
TAAGAATCGTGGGTTCTAACCTGTTGCCTCG [TAAGAATCTAG_LTGcore_CG_RTGcore_CG] (site TAAGAATCTAG) (LTG core: CG, RTG core: CG) | 0.0781
TAAGAATCTTGGGTTCTAACCTGTTGCCTAG [TAAGAATCTAG_LTGcore_CT_RTGcore_CT] (site TAAGAATCTAG) (LTG core: CT, RTG core: CT) | 1.3
TAAGAATCTTGGGTTCTAACCTGTTGCCTAT [TAAGAATCTAG_LTGcore_CT_RTGcore_AT] (site TAAGAATCTAG) (LTG core: CT, RTG core: AT) | 0.0438
TAAGAATCTTGGGTTCTAACCTGTTGCCTTA [TAAGAATCTAG_LTGcore_CT_RTGcore_TA] (site TAAGAATCTAG) (LTG core: CT, RTG core: TA) | 0.138
TAAGAATCTTGGGTTCTAACCTGTTGCCTTC [TAAGAATCTAG_LTGcore_CT_RTGcore_GA] (site TAAGAATCTAG) (LTG core: CT, RTG core: GA) | 0.243
TAAGAATGATGGGTTCTAACCTGTTGCCTTC [TAAGAATCTAG_LTGcore_GA_RTGcore_GA] (site TAAGAATCTAG) (LTG core: GA, RTG core: GA) | 0.176
TAAGAATTGTGGGTTCTAACCTGTTGCCTAG [TAAGAATCTAG_LTGcore_TG_RTGcore_CT] (site TAAGAATCTAG) (LTG core: TG, RTG core: CT) | 0.153
TAAGAATTTTGGGTTCTAACCTGTTGCCTAA [TAAGAATCTAG_LTGcore_TT_RTGcore_TT] (site TAAGAATCTAG) (LTG core: TT, RTG core: TT) | 0.156
TAGAGGGATTGGGTTCTAACCTGTTGCGGAT [TAGAGGGCTCC_LTGcore_AT_RTGcore_AT] (site TAGAGGGCTCC) (LTG core: AT, RTG core: AT) | 0.237
TAGAGGGCCTGGGTTCTAACCTGTTGCGGAG [TAGAGGGCTCC_LTGcore_CC_RTGcore_CT] (site TAGAGGGCTCC) (LTG core: CC, RTG core: CT) | 2.4
TAGAGGGCTTGGGTTCTAACCTGTTGCGGAT [TAGAGGGCTCC_LTGcore_CT_RTGcore_AT] (site TAGAGGGCTCC) (LTG core: CT, RTG core: AT) | 0.779
TAGAGGGCTTGGGTTCTAACCTGTTGCGGCA [TAGAGGGCTCC_LTGcore_CT_RTGcore_TG] (site TAGAGGGCTCC) (LTG core: CT, RTG core: TG) | 1.66
TAGAGGGGCTGGGTTCTAACCTGTTGCGGGC [TAGAGGGCTCC_LTGcore_GC_RTGcore_GC] (site TAGAGGGCTCC) (LTG core: GC, RTG core: GC) | 0.0588
TAGAGGGGTTGGGTTCTAACCTGTTGCGGAC [TAGAGGGCTCC_LTGcore_GT_RTGcore_GT] (site TAGAGGGCTCC) (LTG core: GT, RTG core: GT) | 0.189

Sequence | recombinant barcode read abundance (log10)
TAGAGGGTATGGGTTCTAACCTGTTGCGGAG [TAGAGGGCTCC_LTGcore_TA_RTGcore_CT] (site TAGAGGGCTCC) (LTG core: TA, RTG core: CT) | 0.204
TAGAGGGTATGGGTTCTAACCTGTTGCGGTA [TAGAGGGCTCC_LTGcore_TA_RTGcore_TA] (site TAGAGGGCTCC) (LTG core: TA, RTG core: TA) | 0.481
TCGCGACACTGGGTTCTAACCTGTTGCCGGT [TCGCGACCTCG_LTGcore_AC_RTGcore_AC] (site TCGCGACCTCG) (LTG core: AC, RTG core: AC) | 0.102
TCGCGACAGTGGGTTCTAACCTGTTGCCGCT [TCGCGACCTCG_LTGcore_AG_RTGcore_AG] (site TCGCGACCTCG) (LTG core: AG, RTG core: AG) | 0.128
TCGCGACATTGGGTTCTAACCTGTTGCCGAG [TCGCGACCTCG_LTGcore_AT_RTGcore_CT] (site TCGCGACCTCG) (LTG core: AT, RTG core: CT) | 0.0137
TCGCGACCATGGGTTCTAACCTGTTGCCGTG [TCGCGACCTCG_LTGcore_CA_RTGcore_CA] (site TCGCGACCTCG) (LTG core: CA, RTG core: CA) | 0.139
TCGCGACCCTGGGTTCTAACCTGTTGCCGGG [TCGCGACCTCG_LTGcore_CC_RTGcore_CC] (site TCGCGACCTCG) (LTG core: CC, RTG core: CC) | 0.353
TCGCGACCTTGGGTTCTAACCTGTTGCCGCC [TCGCGACCTCG_LTGcore_CT_RTGcore_GG] (site TCGCGACCTCG) (LTG core: CT, RTG core: GG) | 0.0891
TCGCGACCTTGGGTTCTAACCTGTTGCCGTT [TCGCGACCTCG_LTGcore_CT_RTGcore_AA] (site TCGCGACCTCG) (LTG core: CT, RTG core: AA) | 0.0373
TCGCGACGTTGGGTTCTAACCTGTTGCCGAG [TCGCGACCTCG_LTGcore_GT_RTGcore_CT] (site TCGCGACCTCG) (LTG core: GT, RTG core: CT) | 0.391
TCTACCCACTGGGTTCTAACCTGTTGCTGGT [TCTACCCCTCA_LTGcore_AC_RTGcore_AC] (site TCTACCCCTCA) (LTG core: AC, RTG core: AC) | 0.045
TCTACCCATTGGGTTCTAACCTGTTGCTGAT [TCTACCCCTCA_LTGcore_AT_RTGcore_AT] (site TCTACCCCTCA) (LTG core: AT, RTG core: AT) | 0.00785
TCTACCCCCTGGGTTCTAACCTGTTGCTGGG [TCTACCCCTCA_LTGcore_CC_RTGcore_CC] (site TCTACCCCTCA) (LTG core: CC, RTG core: CC) | 0.0201
TCTACCCCTTGGGTTCTAACCTGTTGCTGAA [TCTACCCCTCA_LTGcore_CT_RTGcore_TT] (site TCTACCCCTCA) (LTG core: CT, RTG core: TT) | 0.241
TCTACCCCTTGGGTTCTAACCTGTTGCTGGG [TCTACCCCTCA_LTGcore_CT_RTGcore_CC] (site TCTACCCCTCA) (LTG core: CT, RTG core: CC) | 0.28
TCTACCCCTTGGGTTCTAACCTGTTGCTGTG [TCTACCCCTCA_LTGcore_CT_RTGcore_CA] (site TCTACCCCTCA) (LTG core: CT, RTG core: CA) | 0.182
TCTACCCTGTGGGTTCTAACCTGTTGCTGAG [TCTACCCCTCA_LTGcore_TG_RTGcore_CT] (site TCTACCCCTCA) (LTG core: TG, RTG core: CT) | 0.0669
TCTACCCTGTGGGTTCTAACCTGTTGCTGCA [TCTACCCCTCA_LTGcore_TG_RTGcore_TG] (site TCTACCCCTCA) (LTG core: TG, RTG core: TG) | 0.0126
TGATACCATTGGGTTCTAACCTGTTGCGTAT [TGATACCCTAC_LTGcore_AT_RTGcore_AT] (site TGATACCCTAC) (LTG core: AT, RTG core: AT) | 0.0803
TGATACCCCTGGGTTCTAACCTGTTGCGTGG [TGATACCCTAC_LTGcore_CC_RTGcore_CC] (site TGATACCCTAC) (LTG core: CC, RTG core: CC) | 0.351
TGATACCCTTGGGTTCTAACCTGTTGCGTGC [TGATACCCTAC_LTGcore_CT_RTGcore_GC] (site TGATACCCTAC) (LTG core: CT, RTG core: GC) | 1.67
TGATACCCTTGGGTTCTAACCTGTTGCGTGT [TGATACCCTAC_LTGcore_CT_RTGcore_AC] (site TGATACCCTAC) (LTG core: CT, RTG core: AC) | 0.0827
